How the values were obtained:
[1] = test system: Regular RNA 20-mer oligonucleotide SEQ ID NO:1; assay: Duplex melting temperature (Tm), SEQ ID NO:1 strand as Regular RNA; assay type: binding; settings: SEQ ID NO:1 strand Regular RNA; four μM each strand, 50 mM NaCl, 10 mM PO4 buffer, pH 7.4
Experimental: (§1) The stability of duplexes having 2′-substituted nucleotides versus duplexes without such modification was tested by examining the Tm of these complexes. four μM each of 20-mer oligonucleotide (5′-ggt ggt tcc tcc tca gtc gg-3′; SEQ ID NO:1) and its complement (5′-ccg act gag aag gaa cca cc-3′; SEQ ID NO:2) were bound in a solution of 50 mM NaCl, 10 mM PO4 buffer, pH 7.4. Each of the nucleotides of the oligonucleotide had the same 2′ group. Following binding, the melting temperature was determined as described (See L. L. Cummins et al., Nucleic Acids Research 23:2019-2024 (1995)).

[2] = test system: 2′-OMe RNA oligo 150-mer (SEQ ID NO:3); assay: Fluorescence signal of 12-mer probes bound to captured 150-mer on streptavidin plate; assay type: binding; settings: individual probes, fluorescence (Oregon Green 488)
Text: A 2′-OMe RNA oligo 150-mer (SEQ ID NO:3) was captured using a 15-mer 2′-OMe oligo tethered through biotin-streptavidin onto a white 96-well plate. Observations were taken of individual 2′-OMe 12-mers complementary to portions of the 150-mer labeled on the 5′-end with Oregon Green 488. Once the signal levels were obtained for single sequences, various combinations of the 12-mers were used to determine whether the fluorescence signal from the probes was additive. The sequences of these probes were chosen at 12-base steps through the sequence of the 150-mer.

[3] = target: Avidin (Gallus gallus, UniProt P02701); settings: cited from earlier work
[4] = test system: polyclonal antibodies to cAMP; settings: cited from earlier work
[5] = test system: Regular DNA 20-mer oligonucleotide SEQ ID NO:1; assay: Duplex melting temperature (Tm), SEQ ID NO:1 strand as Regular DNA; assay type: binding; settings: SEQ ID NO:1 strand Regular DNA; four μM each strand, 50 mM NaCl, 10 mM PO4 buffer, pH 7.4
Experimental: as §1

[6] = test system: folate binding proteins; settings: cited from earlier work

Chain of Avidin (P02701 25-152): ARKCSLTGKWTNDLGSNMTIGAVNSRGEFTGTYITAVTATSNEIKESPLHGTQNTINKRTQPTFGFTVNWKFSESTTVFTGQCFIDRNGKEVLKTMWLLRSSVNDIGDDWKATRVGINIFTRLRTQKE

## 2′-O-methyl: 20-mer SEQ ID NO:2 (5′-ccg act gag aag gaa cca cc-3′), each nucleotide 2′-O-methyl
[1]
  Tm: 79 °C

## 5′-AUAGGGAAUCCU-butanol-3′ [Probe (6)]
[2]
  Signal: 810

## 5′-CCACCUCACGAA-butanol-3′ [Probe (2)]
[2]; listed as (2)
  Signal: 297

## 5′-CCACCUCACGAA-butanol-3′ [Probe (9)]
[2]; listed as (9)
  Signal: 514

## 5′-CGAGUCCUGCAC-butanol-3′ [Probe (5)]
[2]
  Signal: 85

## 5′-GCCGUACUGUAG-butanol-3′ [Probe (3)]
[2]
  Signal: 256

## 5′-GGGGCCGUACUG-butanol-3′ [Probe (10)]
[2]
  Signal: 46

## 5′-GUGCGGGUGAUG-butanol-3′ [Probe (4)]
[2]
  Signal: 115

## 5′-UGCAGUACAUGU-butanol-3′ [Probe (7)]
[2]
  Signal: 466

## 5′-UGUUCACCAUGC-butanol-3′ [Probe (1)]
[2]; listed as (1)
  Signal: 124

## 5′-UGUUCACCAUGC-butanol-3′ [Probe (8)]
[2]; listed as (8)
  Signal: 133

## COC(=O)CCCCC1SCC2C1NC(=O)N2C(=O)OC (centres unmarked) [1′-N-methoxy-carbonylbiotin methyl ester]
[3]
  Binding affinity with Avidin: 10^7 M^−1

## O=C(O)CCCCC1SCC2NC(=S)NC21 (centres unmarked) [2-thiobiotin]
[3]
  Binding affinity with Avidin: 10^13 M^−1

## COC(=O)CCCCC1SCC2NC(=O)N(C(=O)OC)C21 (centres unmarked) [3′-N-methoxy-carbonylbiotin methyl ester]
[3]
  Binding affinity with Avidin: 10^9 M^−1

## O=C(O)CCCC[C@@H]1SC[C@@H]2NC(=O)N[C@@H]21 [Biotin]
[3]
  Binding affinity with Avidin: 10^15 M^−1

## C[C@@H]1NC(=O)N[C@@H]1CCCCCC(=O)O [Dethiobiotin]
[3]
  Binding affinity with Avidin: 10^13 M^−1

## N=C1N[C@H]2[C@H](CS[C@H]2CCCCC(=O)O)N1 [Iminobiotin]
[3]
  Binding affinity with Avidin: 10^11 M^−1

## Nc1ncnc2c1ncn2[C@@H]1O[C@@H]2COP(=O)(O)O[C@H]2[C@H]1O [cAMP, cyclic AMP]
[4]
  Ka of polyclonal antibodies to cAMP: 10^10 to 10^12 M^−1

## Regular DNA: 20-mer SEQ ID NO:2 (5′-ccg act gag aag gaa cca cc-3′) as regular DNA [reference compound]
[1]
  Tm: 66 °C

## p-ethoxy 2′-O-methyl: 20-mer SEQ ID NO:2 (5′-ccg act gag aag gaa cca cc-3′) as p-ethoxy 2′-O-methyl
[1]
  Tm: 71 °C

## p-ethoxy DNA: 20-mer SEQ ID NO:2 (5′-ccg act gag aag gaa cca cc-3′) as p-ethoxy DNA
[5]
  Tm: 55 °C

## p-ethoxy RNA: 20-mer SEQ ID NO:2 (5′-ccg act gag aag gaa cca cc-3′) as p-ethoxy RNA
[1]
  Tm: 56 °C

## tetrahydrofolate
[6]
  Ka: 3e+11 M⁻¹
